How the values were obtained:
Type in all cases: in vivo
cucumbers = experiment: Growth promoting ability, shoot weight of cucumbers
Description: (§1) One week after sowing in pots, root zone treatment of each plant was performed using each 5 ml of BTH, valine, […] powder preparation, and the mixture of […] powder preparation and valine. The root zone treatment with BTH, valine, […] powder preparation, and the mixture of […] powder preparation and valine was performed twice at one week intervals, respectively. One week after the last treatment, a shoot of each treatment group was cut and weighed.

soybeans = experiment: Growth promoting ability, shoot weight of soybeans
Description: as §1

[1] = tested on: Pseudomonas syringae pv. tomato DC3000; experiment: Induced resistance, population of pathogens in Arabidopsis thaliana leaves; conditions: Arabidopsis thaliana leaf disc, root zone treatment, 3 days after Pst inoculation
Description: To this end, Arabidopsis thaliana which is a plant model was used, and Pseudomonas syringae pv. tomato DC3000 (hereinafter, referred to as Pst) causing leaf spot was used as a pathogen. To grow the plant, the surface of seeds of Arabidopsis thaliana was sterilized by immersing the seeds in 3% sodium hypochlorite (NaOCI) for 5 minutes. Thereafter, the seeds were rinsed five times using sterile water and then sown in a pot, and cultured in a plant incubator (12-hour light and 23° C. temperature conditions) for 3 weeks, followed by root zone treatment with each 50 ml of benzothiadiazole (BTH), serenade, N351 strain, valine, and mixture of N351 strain and valine. 7 days after treatment, the pathogen was inoculated and the population of pathogens was examined 0 day and 3 days later. To examine the population of pathogens, the leaves were cut into 1 cm discs using a cork borer and placed in an e-tube containing 1 ml of sterile water and beads. The leaves were ground for 2 minutes at 6000 rpm using a homogenizer (Bertin), and the population of pathogens in the juice was examined.

Phytophthora sojae [2] = experiment: Mixed treatment glass greenhouse experiment, soybean Phytophthora stem and root rot; conditions: soybeans, compared to the untreated group
Description: The subject of the experiment was soybeans. Plant preparation, treatment with […] powder preparation and valine, and treatment of soybean Phytophthora stem and root rot were performed in the same manner as Example 7. […] The control value was calculated as follows. [formula]

[3] = tested on: Pathogenesis-related protein (PR) 1a promoter GUS fusion construct; experiment: Induced resistance, PR1a promoter GUS expression; conditions: Arabidopsis thaliana leaves, 0 to 3 days after disease treatment
[4] = tested on: Pseudomonas syringae pv. lachrymans; experiment: Mixed treatment pot experiment, cucumber bacterial leaf blight; conditions: cucumbers, valine 0.05% in mixed treatment, compared to the untreated group
Phytophthora sojae [5] = experiment: Mixed treatment pot experiment, soybean Phytophthora stem and root rot; conditions: soybeans, valine 0.05% in mixed treatment, compared to the untreated group
[6] = root zone treatment 5 ml twice, one week after last treatment

CSC(=O)c1cccc2nnsc12 [BTH, benzo (1,2,3)-thiadiazile-7-carbothioic acid S-methyl ester, reference compound]
growth compared to the untreated control group (cucumbers): growth inhibition | growth compared to the untreated control group (soybeans): rather inhibited

CC(C)[C@H](N)C(=O)O [valine]
population of pathogens [1]: 8 LogCFU/disc | shoot weight, average (cucumbers; [6]): 14 g | growth further promoted compared to the untreated group (cucumbers; vs untreated group of 12.6 g): 1.4 g | shoot weight, average (soybeans; [6]): 9.3 g | growth further promoted compared to the untreated group (soybeans; vs untreated group of 8.2 g): 1.1 g | control value (Phytophthora sojae [2]): 24% | GUS activity/expression (PR1a) [3]: most strongly induced 1 day after disease treatment, and expression became weaker over time | control value [4]: 38% | control value (Phytophthora sojae [5]): 36%
